Tests used:
[1] = test system: HL-60 (acute myeloid leukemia); assay: MTS proliferation assay, HL-60; settings: Homo sapiens, HL-60, 72 h, read-out: Anti-Proliferative Activity (IC50) HL-60
[2] = test system: HCT-116 (colorectal carcinoma); assay: MTS proliferation assay, HCT-116; settings: Homo sapiens, HCT-116, 72 h, read-out: Anti-Proliferative Activity (IC50) HCT-116
[3] = test system: influenza B (B/Ned/537/05); assay: Antiviral CPE reduction assay, influenza B in MDCK cells; type: cell-based, influenza B virus; settings: Influenza B virus, MDCK, read-out: Antiviral Activity (EC50) Influenza B
[4] = test system: herpes simplex virus-1 (HSV-1 KOS); assay: Antiviral CPE reduction assay, HSV-1 KOS in HEL299 cells; type: cell-based; settings: Human alphaherpesvirus 1, HEL 299, MTS, mean ± SD, no unit printed on the supplement page (Table 2 of the same screen is in µM)
[5] = test system: influenza A/H3N2 (A/HK/7/87); assay: Antiviral CPE reduction assay, influenza A/H3N2 in MDCK cells; type: cell-based, influenza A virus; settings: Influenza A virus, H3N2; MDCK cells; CPE reduction, MTS; mean ± SD of two or three independent experiments; read-out: Antiviral Activity (EC50) Influenza H3N2
[6] = test system: Z-138 (non-Hodgkin lymphoma); assay: MTS proliferation assay, Z-138; settings: Homo sapiens, Z-138, 72 h, read-out: Anti-Proliferative Activity (IC50) Z-138
[7] = test system: NCI-H460 (lung carcinoma); assay: MTS proliferation assay, NCI-H460; settings: Homo sapiens, NCI-H460, 72 h, read-out: Anti-Proliferative Activity (IC50) NCI-H460
[8] = test system: K-562 (chronic myeloid leukemia); assay: MTS proliferation assay, K-562; settings: Homo sapiens, K562, 72 h, read-out: Anti-Proliferative Activity (IC50) K-562
[9] = in vitro; settings: dog
[10] = test system: DND-41 (acute lymphoblastic leukemia); assay: MTS proliferation assay, DND-41; settings: Homo sapiens, DND41, 72 h, read-out: Anti-Proliferative Activity (IC50) DND-41
[11] = test system: Zika virus (ZikV mr766); assay: Antiviral CPE reduction assay, Zika virus mr766 in VeroE6 cells; type: cell-based; settings: Zika virus, Vero C1008, MTS, mean ± SD, no unit printed on the supplement page (Table 2 of the same screen is in µM)
[12] = test system: HCoV-229E; assay: Antiviral CPE reduction assay, HCoV-229E in HEL299 cells; type: cell-based, human coronavirus 229E; settings: Human coronavirus 229E, HEL 299, MTS, mean ± SD of two or three independent experiments
[13] = test system: yellow fever virus (YFV 17D); assay: microbe, parasite or virus in culture; type: cell-based; settings: Yellow fever virus, Vero C1008, read-out: Antiviral activity (EC50) YFV 17D
[14] = test system: Capan-1 (pancreatic adenocarcinoma); assay: MTS proliferation assay, Capan-1; settings: Homo sapiens, CAPAN-1, 72 h, read-out: Anti-Proliferative Activity (IC50) Capan-1
[15] = in vitro; settings: African green monkey
[16] = test system: HCoV-NL63; assay: Antiviral CPE reduction assay, HCoV-NL63 in Hep3B cells; type: cell-based, human coronavirus NL63; settings: Human coronavirus NL63, MTS, mean ± SD of two or three independent experiments
[17] = test system: variety of viruses (HSV-1, influenza viruses, yellow fever virus, Zika virus, RSV, HCoV-229E, HCoV-OC43, HCoV-NL63); type: cell-based; settings: CPE reduction assays, virus panel
[18] = test system: HCoV-OC43; assay: Antiviral CPE reduction assay, HCoV-OC43 in HEL299 cells; type: cell-based, human coronavirus OC43; settings: Betacoronavirus 1, OC43, HEL 299, MTS, mean ± SD of two or three independent experiments
[19] = test system: influenza A/H1N1 (A/Ned/378/05); assay: Antiviral CPE reduction assay, influenza A/H1N1 in MDCK cells; type: cell-based, influenza A virus; settings: Influenza A virus, H1N1; MDCK cells; CPE reduction, MTS; mean ± SD of two or three independent experiments; read-out: Antiviral Activity (EC50) Influenza H1N1
[20] = test system: LN-229 (glioblastoma); assay: MTS proliferation assay, LN-229; settings: Homo sapiens, LN-229, 72 h, read-out: Anti-Proliferative Activity (IC50) LN-229
[21] = test system: respiratory syncytial virus A (RSV A Long); assay: Antiviral CPE reduction assay, RSV A Long in Hep2 cells; type: cell-based; settings: human respiratory syncytial virus, HEp-2; Hep2 cells; CPE reduction, MTS; mean ± SD of two or three independent experiments; read-out: Antiviral Activity (EC50) RSV A Long
[22] = in vitro; settings: human
[23] = in vitro; settings: human; remark: listed apart in the source
[24] = in vitro; settings: human; remark: listed apart in the source

SMILES	IC50 [1]	IC50 [2]	EC50 [3]	EC50 [4]	EC50 [5]	IC50 [6]	IC50 [7]	IC50 [8]	CC50 [9]	IC50 [10]	EC50 [11]	EC50 [12]	EC50 [13]	IC50 [14]	CC50 [15]	EC50 [16]	melting point	EC50 [18]	EC50 [19]	IC50 [20]	further results
C#Cc1cccc(Nc2ncnc3nc(N4CCN(C)CC4)ncc23)c1 [Compound 7h, N-(3-ethynylphenyl)-7-(4-methylpiperazin-1-yl)pyrimido[4,5-d]pyrimidin-4-amine]	79.1 ± 4.6 µM	> 100 µM	> 50 µM	> 50 µM	> 50 µM	52.6 ± 1.4 µM	> 100 µM	52.3 ± 4.4 µM	> 50 µM	66.5 ± 0.8 µM	> 50 µM	> 50 µM	> 50 µM	> 100 µM	> 50 µM	> 50 µM	290 °C	> 50 µM	> 50 µM	97.1 ± 1.5 µM	antiviral activity (in words) [17]: inactive; EC50 [21]: > 50 µM
CCN(CC)CCNc1ncc2c(Nc3cccc4c3CCCC4)ncnc2n1 [Compound 7b, N^2-[2-(Diethylamino)ethyl]-N^5-(5,6,7,8-tetrahydronaphthalen-1-yl)pyrimido[4,5-d]pyrimidine-2,5-diamine]	> 100 µM	> 100 µM	> 50 µM	> 50 µM	> 50 µM	62.6 ± 0.8 µM	> 100 µM	> 100 µM	> 50 µM	67.1 ± 4.7 µM	> 50 µM	11 ± 2.7 µM	> 50 µM	> 100 µM	> 50 µM	> 50 µM	181.3 °C	34.7 ± 16.7 µM	> 50 µM	> 100 µM	CC50 [22]: > 50 µM; CC50 [23]: > 50 µM; CC50 [24]: > 50 µM; EC50 [21]: > 50 µM
CCN(CC)CCNc1ncc2c(Nc3cccnc3)ncnc2n1 [Compound 7l, N^2-[2-(diethylamino)ethyl]-N^5-(pyridin-3-yl)pyrimido[4,5-d]pyrimidine-2,5-diamine]	> 100 µM	> 100 µM	> 50 µM	> 50 µM	> 50 µM	> 100 µM	> 100 µM	> 100 µM	> 50 µM	> 100 µM	> 50 µM	> 50 µM	> 50 µM	> 100 µM	> 50 µM	> 50 µM	220 to 224 °C	> 50 µM	> 50 µM	> 100 µM	CC50 [22]: > 50 µM; CC50 [23]: > 50 µM; CC50 [24]: > 50 µM; EC50 [21]: > 50 µM
CN(C)CCNc1ncc2c(Nc3cccc4c3CCC4)ncnc2n1 [Compound 7e, N^5-(2,3-dihydro-1H-inden-4-yl)-N^2-(2-(dimethylamino)ethyl)pyrimido[4,5-d]pyrimidine-2,5-diamine]	> 100 µM	> 100 µM	> 50 µM	> 50 µM	> 50 µM	> 100 µM	> 100 µM	> 100 µM	> 50 µM	> 100 µM	> 50 µM	20.6 ± 0.3 µM	> 50 µM	> 100 µM	> 50 µM	> 50 µM	180.9 °C	> 50 µM	> 50 µM	> 100 µM	CC50 [22]: > 50 µM; CC50 [23]: > 50 µM; CC50 [24]: > 50 µM; EC50 [21]: > 50 µM
c1cc2c(c(Nc3ncnc4nc(NC5CC5)ncc34)c1)CCC2 [Compound 7g, N^2-cyclopropyl-N^5-(2,3-dihydro-1H-inden-4-yl)pyrimido[4,5-d]pyrimidine-2,5-diamine]	> 100 µM	> 100 µM	> 50 µM	> 50 µM	> 50 µM	> 100 µM	> 100 µM	> 100 µM	> 50 µM	> 100 µM	> 50 µM	≥ 30.5 µM	> 50 µM	> 100 µM	> 50 µM	> 50 µM	290 °C	> 50 µM	> 50 µM	> 100 µM	CC50 [22]: > 50 µM; CC50 [23]: > 50 µM; CC50 [24]: > 50 µM; EC50 [21]: > 50 µM
C#Cc1cccc(Nc2ncnc3nc(NC4CC4)ncc23)c1 [Compound 7j, N^2-cyclopropyl-N^5-(3-ethynylphenyl)pyrimido[4,5-d]pyrimidine-2,5-diamine]	> 100 µM	> 100 µM	> 50 µM	> 50 µM	> 50 µM	> 100 µM	> 100 µM	> 100 µM	> 50 µM	> 100 µM	> 50 µM	> 50 µM	> 50 µM	> 100 µM	> 50 µM	> 50 µM	296 °C	> 50 µM	> 50 µM	> 100 µM	CC50 [22]: > 50 µM; CC50 [23]: > 50 µM; CC50 [24]: > 50 µM; EC50 [21]: > 50 µM
CN1CCN(c2ncc3c(Nc4cccc5c4CCC5)ncnc3n2)CC1 [Compound 7d, N-(2,3-dihydro-1H-inden-4-yl)-7-(4-methylpiperazin-1-yl)pyrimido[4,5-d]pyrimidin-4-amine]	≥ 71 µM	> 100 µM	> 50 µM	> 50 µM	> 50 µM	56.5 ± 1.2 µM	> 100 µM	61.3 ± 2.4 µM	> 50 µM	80.6 ± 10.2 µM	> 50 µM	> 50 µM	> 50 µM	> 100 µM	> 50 µM	> 50 µM	> 250 °C	> 50 µM	> 50 µM	> 100 µM	CC50 [22]: > 50 µM; CC50 [23]: > 50 µM; antiviral activity (in words) [17]: inactive; CC50 [24]: > 50 µM; EC50 [21]: > 50 µM
CN1CCN(c2ncc3c(Nc4cccnc4)ncnc3n2)CC1 [Compound 7k, 7-(4-methylpiperazin-1-yl)-N-(pyridin-3-yl)pyrimido[4,5-d]pyrimidin-4-amine]	> 100 µM	> 100 µM	> 50 µM	> 50 µM	> 50 µM	> 100 µM	> 100 µM	> 100 µM	> 50 µM	> 100 µM	> 50 µM	> 50 µM	> 50 µM	> 100 µM	> 50 µM	> 50 µM	> 300 °C	> 50 µM	> 50 µM	> 100 µM	CC50 [22]: > 50 µM; CC50 [23]: > 50 µM; antiviral activity (in words) [17]: inactive; CC50 [24]: > 50 µM; EC50 [21]: > 50 µM

Reference: publication PMC11643962, “Exploring 4,7-Disubstituted Pyrimido[4,5-d]pyrimidines as Antiviral and Anticancer Agents” (Molecules, 2024)
